# Literature values, collected in publication PMC6597953, “Taking Advantage of the Selectivity of Histone Deacetylases and Phosphodiesterase Inhibitors to Design Better Therapeutic Strategies to Treat Alzheimer’s Disease” (Frontiers in Aging Neuroscience, 2019).
# Tests used:
# Format in all cases: biochemical
# HDAC6 = target: T1, HDAC6 (Homo sapiens, UniProt Q9UBN7); experiment: IC50 of HDAC6 inhibition (assay not described); supported by alpha-tubulin acetylation western blot in SH-SY5Y cells
# T1 sequence (Q9UBN7 1-1215): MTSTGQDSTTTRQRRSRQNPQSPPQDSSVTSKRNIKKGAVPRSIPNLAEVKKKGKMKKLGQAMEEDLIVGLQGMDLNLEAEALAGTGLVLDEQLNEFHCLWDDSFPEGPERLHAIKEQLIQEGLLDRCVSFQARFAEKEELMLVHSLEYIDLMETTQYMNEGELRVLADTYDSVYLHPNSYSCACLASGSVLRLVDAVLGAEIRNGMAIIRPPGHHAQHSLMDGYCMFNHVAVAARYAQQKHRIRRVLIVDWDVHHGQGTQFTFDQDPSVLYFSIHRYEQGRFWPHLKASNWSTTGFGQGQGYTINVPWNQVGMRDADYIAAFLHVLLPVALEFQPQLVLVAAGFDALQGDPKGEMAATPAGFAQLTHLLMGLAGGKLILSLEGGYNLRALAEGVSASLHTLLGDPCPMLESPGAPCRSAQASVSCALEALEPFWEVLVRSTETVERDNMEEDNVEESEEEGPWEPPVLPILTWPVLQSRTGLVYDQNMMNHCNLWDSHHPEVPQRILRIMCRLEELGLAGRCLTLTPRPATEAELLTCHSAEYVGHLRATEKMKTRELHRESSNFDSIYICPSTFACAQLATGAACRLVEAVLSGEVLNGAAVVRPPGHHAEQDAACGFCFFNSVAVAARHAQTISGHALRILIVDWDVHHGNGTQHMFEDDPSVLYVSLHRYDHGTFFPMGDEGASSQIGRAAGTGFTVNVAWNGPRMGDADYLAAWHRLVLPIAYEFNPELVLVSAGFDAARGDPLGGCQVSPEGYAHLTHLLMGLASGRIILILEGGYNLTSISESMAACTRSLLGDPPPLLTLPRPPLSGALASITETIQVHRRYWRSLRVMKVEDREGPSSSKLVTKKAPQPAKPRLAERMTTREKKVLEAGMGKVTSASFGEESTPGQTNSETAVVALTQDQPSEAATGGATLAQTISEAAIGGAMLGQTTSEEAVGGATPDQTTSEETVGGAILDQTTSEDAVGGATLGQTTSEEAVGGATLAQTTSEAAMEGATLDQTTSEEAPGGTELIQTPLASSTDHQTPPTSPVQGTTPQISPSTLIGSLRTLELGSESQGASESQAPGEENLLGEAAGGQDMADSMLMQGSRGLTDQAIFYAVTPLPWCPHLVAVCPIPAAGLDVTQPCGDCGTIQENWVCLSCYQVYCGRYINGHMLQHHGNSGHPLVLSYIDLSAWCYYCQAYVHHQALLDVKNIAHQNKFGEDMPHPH
# HDAC1 = HDAC1 (Homo sapiens, UniProt Q13547); experiment: IC50 of HDAC1 inhibition (assay not described); AcH3K9 western blot in SH-SY5Y cells at […]
# Sequence of HDAC1 (Q13547 whole entry): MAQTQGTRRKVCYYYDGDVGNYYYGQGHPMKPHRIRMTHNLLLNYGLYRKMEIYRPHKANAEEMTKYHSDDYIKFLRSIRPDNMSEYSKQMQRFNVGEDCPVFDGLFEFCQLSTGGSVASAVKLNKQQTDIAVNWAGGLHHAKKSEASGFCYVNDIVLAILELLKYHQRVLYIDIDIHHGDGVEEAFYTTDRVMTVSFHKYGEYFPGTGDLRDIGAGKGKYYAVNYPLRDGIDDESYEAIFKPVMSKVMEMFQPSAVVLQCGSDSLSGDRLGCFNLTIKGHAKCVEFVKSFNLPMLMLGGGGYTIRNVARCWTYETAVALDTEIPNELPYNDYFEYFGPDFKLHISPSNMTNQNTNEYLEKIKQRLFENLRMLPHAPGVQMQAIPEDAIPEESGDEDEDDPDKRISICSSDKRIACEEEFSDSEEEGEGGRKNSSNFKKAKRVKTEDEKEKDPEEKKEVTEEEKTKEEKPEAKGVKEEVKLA
# HDAC2 = HDAC2 (Homo sapiens, UniProt Q92769); experiment: IC50 of HDAC2 inhibition (assay not described)
# Sequence of HDAC2 (Q92769 whole entry): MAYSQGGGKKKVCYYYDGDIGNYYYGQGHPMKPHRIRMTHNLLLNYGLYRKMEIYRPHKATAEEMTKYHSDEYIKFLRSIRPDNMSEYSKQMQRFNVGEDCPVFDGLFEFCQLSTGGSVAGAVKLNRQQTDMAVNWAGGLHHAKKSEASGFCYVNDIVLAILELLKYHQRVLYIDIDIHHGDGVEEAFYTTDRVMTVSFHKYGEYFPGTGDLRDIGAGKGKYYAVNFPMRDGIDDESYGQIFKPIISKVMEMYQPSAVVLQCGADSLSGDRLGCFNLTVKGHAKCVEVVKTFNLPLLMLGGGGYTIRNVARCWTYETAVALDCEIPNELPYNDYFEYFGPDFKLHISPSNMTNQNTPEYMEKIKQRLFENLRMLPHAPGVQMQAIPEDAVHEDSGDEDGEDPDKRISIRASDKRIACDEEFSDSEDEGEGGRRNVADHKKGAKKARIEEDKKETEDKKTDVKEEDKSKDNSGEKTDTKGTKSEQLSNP
# PDE9 = target: T2, PDE9 (Homo sapiens, UniProt O76083); experiment: IC50 of PDE9 inhibition (assay not described); supported by pCREB western blot in SH-SY5Y cells
# T2 construct: gene PDE9A
# T2 sequence (O76083 whole entry): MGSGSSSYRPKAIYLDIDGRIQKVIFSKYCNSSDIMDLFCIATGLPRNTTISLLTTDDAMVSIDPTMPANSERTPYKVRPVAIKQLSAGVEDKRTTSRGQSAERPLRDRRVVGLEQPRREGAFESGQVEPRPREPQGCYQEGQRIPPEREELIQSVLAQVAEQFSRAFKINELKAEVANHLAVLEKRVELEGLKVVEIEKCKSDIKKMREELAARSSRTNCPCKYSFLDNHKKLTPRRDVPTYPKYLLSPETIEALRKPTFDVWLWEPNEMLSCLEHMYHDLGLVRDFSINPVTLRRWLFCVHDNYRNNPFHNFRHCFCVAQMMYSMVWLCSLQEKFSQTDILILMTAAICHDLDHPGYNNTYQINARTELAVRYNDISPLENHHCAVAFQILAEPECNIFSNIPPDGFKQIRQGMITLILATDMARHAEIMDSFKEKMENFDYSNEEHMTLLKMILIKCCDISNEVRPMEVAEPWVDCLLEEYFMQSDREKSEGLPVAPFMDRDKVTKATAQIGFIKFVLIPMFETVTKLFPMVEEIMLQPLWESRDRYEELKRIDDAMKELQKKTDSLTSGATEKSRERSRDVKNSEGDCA
substance,measurement,setting,value
CM-695,IC50,HDAC6,40 nM
same,IC50,HDAC1,593 nM
same,IC50,HDAC2,3530 nM
same,IC50,PDE9,107 nM
